Results on 65 molecules are retold here after PubChem BioAssay AID1421 (Emory University Molecular Libraries Screening Center, 2008).

The structures appear in SMILES notation. Values joined by “and” are separate entries in the source; they are usually repeats but may differ in a detail not shown here. Equal entries are not always repeated. Active and inactive are the calls of the source. No rule for the calls is given here.

Chain of Prostaglandin E2 receptor EP2 subtype (Homo sapiens) (P43116 whole entry, looked up): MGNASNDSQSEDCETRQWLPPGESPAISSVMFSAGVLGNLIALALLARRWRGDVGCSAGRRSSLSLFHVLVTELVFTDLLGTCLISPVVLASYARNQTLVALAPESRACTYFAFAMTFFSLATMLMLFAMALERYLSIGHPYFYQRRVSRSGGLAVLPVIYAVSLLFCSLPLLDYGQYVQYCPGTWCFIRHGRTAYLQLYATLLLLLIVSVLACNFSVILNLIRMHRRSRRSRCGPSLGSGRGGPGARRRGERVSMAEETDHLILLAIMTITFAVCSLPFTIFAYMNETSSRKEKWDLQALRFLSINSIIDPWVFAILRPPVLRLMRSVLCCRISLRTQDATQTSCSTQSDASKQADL

The first test concerns the target Prostaglandin E2 receptor EP2 subtype (Homo sapiens) (UniProt P43116). The test is described as follows: compounds shifting PGE2 potency at EP2 – cell-based, human EP2, PGE2 EC50 shift, dose response (AID 1421). The following applies: EP2-expressing cells, PGE2 EC50 shift by compound.
With `Cc1noc(C)c1CSc1ncnc2sc3c(c12)CCC3`, the outcome was active. On the same count and under the same terms, the entry for `CCC1COC(c2cccn2Cc2ccc(Cl)cc2)=N1` (stereo not drawn) is “active”; for `CCOC(=O)c1cnc(SC)nc1Sc1ccccc1Cl` it is “active”; for `Fc1ccc(Oc2nc(-c3ccccc3)nnc2C(F)(F)F)cc1` it is “active”. Still for that read-out and setting: the entry for `C/C(=N\NC(=O)NC1CCCCC1)C1CCCCC1` is “active”; for `CSc1ccccc1NC(=O)CN(C)Cc1cccc(Cl)c1` it is “active”; for `COC(=O)c1c(NC(=O)C2CC2)sc2c1CCCC2` it is “active”. In the case of `CC(C)(C)C1CCC(=NNc2ccc(S(N)(=O)=O)cc2[N+](=O)[O-])CC1` (stereo not drawn), the result was active.

The same test, now with this note: EP2-expressing cells, PGE2 EC50 shift by compound; measured here: PGE2 EC50 at 6.7 uM compound.
On to `Cc1cccc2cc(CN(Cc3cccs3)C(c3nnnn3C3CCCC3)C(C)C)c(=O)[nH]c12` (stereo not drawn), for which the PGE2 EC50 with compound is 0.99 nM. Still for that read-out and setting: for `N#Cc1c(-c2c(Cl)cccc2Cl)noc1/C=C/Nc1ccc(C(=O)O)cc1` the value was 0.7 nM; for `CC1(c2cc([N+](=O)[O-])cc([N+](=O)[O-])c2)CC(C)(C)N(C(=O)c2ccccc2)c2ccccc21` (stereo not drawn), 1.32 nM. As to `Cc1noc(C)c1CSc1ncnc2sc3c(c12)CCC3`, the PGE2 EC50 with compound was 0.87 nM. Still for that read-out and setting: the figure for `CCC1COC(c2cccn2Cc2ccc(Cl)cc2)=N1` (stereo not drawn) is 1.27 nM; for `CC(C)Oc1ccc(Cc2n[nH]c(=S)n2Cc2ccccc2)cc1Cl` it is 1.25 nM; for `O=C(c1ccco1)N(CCC(c1ccccc1)c1ccco1)Cc1ccc(F)cc1` (stereo not drawn) it is 1.11 nM. Still for that read-out and setting: for `COc1cc(OC)c(OC)cc1CNCCc1ccc(OC)c(OC)c1` the value was 1.3 nM; for `CCOc1cc(S(=O)(=O)NCCc2cccc(C)c2)c(OCC)cc1-n1cnnn1`, 1.21 nM; for `O=C(Cc1ccccc1)Nc1ccccc1N1CCN(c2ccccc2)CC1`, 0.95 nM. Regarding `O=c1[nH]c2ccc(Cl)cc2c(-c2ccccc2)c1N1CCN(c2ccccn2)CC1`, the PGE2 EC50 with compound amounted to 1.64 nM. On the same count and under the same terms, for `COC(=O)c1c(NC(=O)Cc2cccs2)sc2c1CCCC2` the value was 1.02 nM; for `CC(Sc1ccc2ccccc2n1)C(=O)O` (stereo not drawn), 3.1 nM and 3.84 nM. `O=C(c1cccs1)N1N=C(c2ccccc2)CC1c1ccc(O)cc1` (stereo not drawn): the PGE2 EC50 with compound was determined as 0.83 nM.

With `Cn1c(=O)[nH]c(=O)c2c1nc(N1CCCCCC1)n2Cc1cccc2ccccc12`, the PGE2 EC50 with compound is 2.64 nM. Same read-out and setting: the figure for `COc1cc(-c2noc(-c3cccc(Cl)c3)n2)cc(OC)c1OC` is 1.11 nM. On the same count and under the same terms, the figure for `CCC(c1nnnn1C1CCCC1)N(Cc1cccs1)Cc1cc2cc(C)ccc2[nH]c1=O` (stereo not drawn) is 0.33 nM; for `CCCCC(=O)Nc1sc2c(c1C(=O)OCC)CCC(C=O)=C2Cl` it is 0.91 nM; for `CC1CCN(c2nc3c(c(=O)[nH]c(=O)n3C)n2CCCc2ccccc2)CC1` it is 1.05 nM.

Regarding `Cc1cc(SC(C)C(=O)O)nc2ccccc12` (stereo not drawn), the PGE2 EC50 with compound worked out at 1.18 nM. On the same count and under the same terms, for `COc1cccc(N=c2oc3c(C)ncc(CO)c3cc2C(=O)Nc2ccccc2OC)c1` the value was 1.48 nM; for `CCOC1(OCC)C(c2ccc(N)cc2)C(C#N)(C#N)C1(OCC)OCC` (stereo not drawn), 0.31 nM. For the molecule `COC(=O)c1c(NC(=O)Cc2cccs2)sc(C)c1C`, the PGE2 EC50 with compound was 0.88 nM. Turning to `N#Cc1sc2nc(C3CC3)cc(-c3ccc(Cl)cc3)c2c1N`, the PGE2 EC50 with compound was 0.81 nM. For `S=c1[nH]nc(CSc2nc3ccccc3s2)n1Cc1ccccc1`, the PGE2 EC50 with compound was determined as 0.72 nM. Still for that read-out and setting: the figure for `CCOC(=O)/C(N=Nc1c(Br)cc(Br)cc1Br)=C(\C)O` is 0.84 nM; for `CCOC(=O)c1cnc(SC)nc1Sc1ccccc1Cl` it is 1.07 nM; for `COc1ccc(Cn2c(-c3ccc(OC)cc3)nc3ccccc32)cc1` it is 1 nM.

Turning to `COc1cc2c(cc1OC)CN(c1ccc(-c3ccccc3OC)nn1)CC2`, the PGE2 EC50 with compound was 1.64 nM. On to `COC(=O)c1nc(NC(=O)C(C)(C)C)n[nH]1`, for which the PGE2 EC50 with compound turned out to be 2.41 nM. Same read-out and setting: the figure for `O=c1cc(N2CCCCC2)c(-c2ccccc2)nn1Cc1ccccc1` is 1.25 nM. Still for that read-out and setting: for `CCN(CC)C(=O)CN(c1cc2c(cc1OC)oc1ccccc12)S(=O)(=O)c1ccc(C)cc1` the value was 1.2 nM; for `Cc1ccc(S(=O)(=O)NCC(=O)N(c2ccccc2)C(C(=O)NCc2ccccc2)c2ccco2)cc1` (stereo not drawn), 1 nM. In the case of `O=C(CN1CCCCCCC1)Nc1ccc(Cl)cc1Cl`, the PGE2 EC50 with compound worked out at 1.11 nM. Take `Fc1ccc(Oc2nc(-c3ccccc3)nnc2C(F)(F)F)cc1`: the PGE2 EC50 with compound was determined as 0.66 nM. Same read-out and setting: the figure for `c1ccc(CCc2ccccc2-c2nc(-c3ccccn3)no2)cc1` is 0.32 nM; for `Oc1ccccc1-c1nc(N2CCCC2)c2ccccc2n1` it is 0.64 nM; for `C/C(=N\NC(=O)NC1CCCCC1)C1CCCCC1` it is 1.79 nM. On the same count and under the same terms, the figure for `COc1ccc(/C=C(\C#N)C(N)=O)cc1OC` is 1.31 nM. For the molecule `Cc1noc2ncnc(Sc3c(Cl)cccc3Cl)c12`, the PGE2 EC50 with compound was 0.75 nM. Take `CCOC(=O)c1c(CC(C)C)csc1N`: the PGE2 EC50 with compound worked out at 1.47 nM.

As to `CCOC(=O)c1c(NC(=O)c2c(Br)cnn2CC)sc(C)c1C`, the PGE2 EC50 with compound was determined as 0.9 nM. In the case of `CCc1oc2ccccc2c1C(=O)c1cc(Br)c(O)c(Br)c1`, the PGE2 EC50 with compound was 1.02 nM and 0.68 nM. Turning to `N#CCSc1nc2c(c(C3CC=CCC3)c1C#N)CCC2` (stereo not drawn), the PGE2 EC50 with compound stood at 1.45 nM. The same measure, in the same setting: for `CSc1ccccc1NC(=O)CN(C)Cc1cccc(Cl)c1` the value was 0.97 nM. Same read-out and setting: the figure for `FC(F)(F)c1cccc(/C=N/NC(=S)NC2CCCCC2)c1` is 0.42 nM; for `COC(=O)c1c(NC(=O)C2CC2)sc2c1CCCC2` it is 0.95 nM. Same read-out and setting: for `CCOC(=O)C1CCCN(C(=O)c2ccc(C)cc2O)C1` (stereo not drawn) the value was 1.44 nM. Take `Brc1ccc(Cn2c(-c3cncs3)nc3ccccc32)cc1`: the PGE2 EC50 with compound was determined as 1.66 nM. Same read-out and setting: for `COc1ccc(-n2c(COc3ccc(Cl)cc3)nnc2SCc2ccc(C#N)cc2)cc1` the value was 1.22 nM; for `Cc1nn2c(N3CCN(C(=O)c4ccco4)CC3)cc(C(C)(C)C)nc2c1-c1ccccc1`, 1.15 nM. Consider `CC(C)n1cc(-c2ccc(Cl)cc2)cc(C#N)c1=O`, for which the PGE2 EC50 with compound stood at 1.21 nM. Regarding `Nc1ccc(Cl)cc1C(=O)c1ccccc1Cl`, the PGE2 EC50 with compound is 1.16 nM. On the same count and under the same terms, the figure for `CNC[C@H](O)c1ccc(O)c(O)c1` is 0.65 nM; for `O=c1c2c(n3cnnc3n1C1CCCCC1)-c1ccccc1CC21CCCCC1` it is 0.33 nM. With `COc1ccccc1NC(=O)CSc1nnc(Cn2nnc(-c3ccccc3)n2)n1-c1ccccc1`, the PGE2 EC50 with compound was found to be 0.55 nM. On the same count and under the same terms, for `c1ccc(C2Nc3ccccc3Oc3ccccc32)cc1` (stereo not drawn) the value was 0.85 nM; for `CCn1c2ccccc2c2nc3ccccc3nc21`, 1.55 nM; for `COc1ccc(CSC2=C(C#N)C(=O)NC3(CCCCC3)S2)cc1`, 1.3 nM.

For `CC(C)(C)C1CCC(=NNc2ccc(S(N)(=O)=O)cc2[N+](=O)[O-])CC1` (stereo not drawn), the PGE2 EC50 with compound is 1.01 nM. Still for that read-out and setting: the figure for `COC(=O)c1sc2nc(-c3ccccc3)c3c(c2c1N)CCCC3` is 0.33 nM. Still for that read-out and setting: for `CC1CCN(c2nc3c(c(=O)[nH]c(=O)n3C)n2CC(C)CSc2nnnn2-c2ccccc2)CC1` (stereo not drawn) the value was 1.27 nM. The same measure, in the same setting: for `CS(=O)(=O)N(Cc1ccccc1)c1ccccc1C(=O)Nc1ccccc1C(=O)NCc1ccco1` the value was 3.04 nM; for `COCCNC(=O)C(c1ccc(F)cc1)N(CC1CCCO1)C(=O)CCC(=O)Nc1ccccn1` (stereo not drawn), 2.09 nM; for `Cn1c(=O)c2c(ncn2CCSS(=O)(=O)O)n(C)c1=O`, 0.97 nM.
